Experimental data as given in patent US10406120B2, “Methods and compositions for treating kidney disorders” (Golden Biotechnology Corporation, priority 2013, dated 2019).

Key:
MCP-1 = assay: AcP-IgAN model: renal MCP-1 mRNA and protein; assay type: in vivo, B cell-deficient mice; conditions: AcP-IgAN mice
Experimental: (§1) B cell-deficient mice (B6.129S2-Igh-6tm1Cgn/J) were obtained from the Academia Sinica (Professor John T. Kung, Institute of Molecular Biology), and maintained at the animal center of the National Defense Medical Center, Taipei, Taiwan. AcP-IgAN was induced in the mice by daily injection of purified IgA anti-phosphorylcholine antibodies and pneumococcal C-polysaccharide (PnC) as described previously (Chao, et al., Kidney Int. 70:283-297; 2006). All animal experiments were performed with the approval of the Institutional Animal Care and Use Committee of The National Defense Medical Center, Taiwan, and were consistent with the NIH Guide for the Care and Use of Laboratory Animals.
For IHC, formalin fixed and paraffin embedded tissue sections or frozen sections were incubated with against IL-6 (R&D Systems, MN), MCP-1 (Santa Cruz, Calif.), F4/80 (monocytes/macrophages; Serotec, N.C.), collagen IV (Southern Biotech, AL), TGF-β1 (Santa Cruz), phopsho-NFκB p65 (Cell Signaling, MA), CD3 (pan-T cell; Serotec), CD4 (T helper cell; BioLegend, CA), CD8 (cytotoxic T cell), CD11b (macrophages/neutrophils), or CD11c (dendritic cells) (BD Biosciences, CA) antibodies. The FITC-conjugated, Alexa Fluor 488-conjugated (Invitrogen, CA) or horseradish peroxidase (HRP) conjugated secondary antibodies (DAKO, Denmark) were then applied to the sections. Hematoxylin or 4′,6-diamidino-2-phenylindole (DAKO) was used in the counter staining for nuclei.
Total cortical kidney RNA was extracted with TriZOL reagents (Invitrogen) from cortical tissue of the kidney. For first-strand cDNA synthesis, 1.5 μg of total RNA was used in a single-round reverse transcriptase reaction. The reaction mixture consisted of 0.9 μl of Oligo (dT) 12 to 18 primer, 1.0 mM deoxyribonucleotide triphosphate (dNTP), 1 μl first strand buffer, 0.4 mM dithiothreitol, 80 U of RNaseout recombinant ribonuclease inhibitor, and 300 U of superscript II RNase H (Invitrogen). Real-time PCR was performed on an ABI Prism 7700 Sequence Detection System (Applied Biosystems, CA). […]

ROS = assay: AcP-IgAN model: ROS levels; assay type: in vivo, B cell-deficient mice; conditions: AcP-IgAN mice
Experimental: Kidney in-situ superoxide anion production was determined by DHE labeling according to the known method. (Wu, et al., Nephrol Dial Transplant, 2008, 23: 3082-3090, or Ka, et al., J. Am. Soc. Nephrol. 2007, 18:2473-2485) Fluorescent images were quantified by counting the percentage of positive nuclei in the total nuclei per kidney cross section. Sera and kidney tissues were assessed for superoxide anion according to the known method. (Wu, et al., J Pineal Res, 2001, 30: 147-156, or Ka, et al., J. Am. Soc. Nephrol. 2007, 18:2473-2485) For ROS levels of serum, urine, and renal tissue, the samples were incubated with Krebs-HEPES buffer, and lucigenin (Sigma-Aldrich Chemical Co, MO) at 1.25 mM was used as substrate. Luminescence counts were obtained in duplicate at 15 sec intervals by a microplate luminometer (Hidex Microplate Luminometer, Finland), as previously described (Kretzler, et al.,. Virchows Arch, 425: 181-193, 1994). The superoxide anion activity was expressed as relative luminescence units (RLU) per 15 min per mg of organ dry weight (i.e., RUL/15 min/mg) or RLU/15 min/ml.
as §1

TGF-β1 = assay: FSGS model: TGF-β1 in serum and kidney (ELISA, IHC); assay type: in vivo, BALB/c mice; conditions: FSGS mice
Experimental: (§2) Experiments described herein were performed on 8-week-old female BALB/c mice. The FSGS mice were injected intravenously with a single dose of adriamycin (0.1 mg/10 g body weight). The mice were given Compound 1 six hours before adriamycin injection by gavage daily till sacrifice. BALB/c mice intraperitoneal injected with normal saline were used as normal controls, while ASLN mice given vehicle (corn oil) by gavage were used as disease controls. Mice were killed at day 7, 14, or 21 after disease induction, and spleen, renal cortical tissue, and blood samples collected and stored appropriately until analysis. All animal experiments were performed with the ethical approval of the Institutional Animal Care and Use Committee of The National Defense Medical Center, Taiwan and performed according to the ethical rules in the NIH Guide for the Care and Use of Laboratory Animals.
For IHC, formalin-fixed and paraffin-embedded renal sections were prepared and incubated with primary antibodies against mouse Desmin (Lab Vision, CA, USA), CD3 (pan-T cell; Serotec, N.C., USA), F4/80 (monocytes/macrophages; Serotec), IL-6 (R&D Systems, MN, USA), NF-κB p65 (Cell Signaling Technology, MA, USA), collagen I, III, and IV (Southern Biotech, AL, USA), or TGF-β1 (Santa Cruz Biotechnology, CA, USA), biotinylated second antibodies (Dako, Glostrup, Denmark), and avidin-biotin-peroxidase complex (Dako). Semi-quantitative evaluation of staining was performed.
The TGF-β1 protein levels in serum and renal tissue were measured using the commercial ELISA kits (R&D Systems), according to the manufacturer's instructions. Samples were acidified with 1 N HCl and neutralized with 1.2 N NaOH/0.5 M HEPES to assay for the amount of TGF-β1.

[1] = test system: NAD(P)H oxidase subunit p47^phox; assay: FSGS model: Western blot of cytosolic p47^phox in kidney; assay type: in vivo, BALB/c mice; conditions: FSGS mice, day 14 to day 21, vs control FSGS mice
Experimental: as §2
The preparation of cytoplasmic and nuclear proteins of renal tissues was extracted using the Nuclear Extract Kit (Active Motif, Tokyo, Japan) according to the manufacturer's instructions. Target proteins in the cytoplasmic and/or nuclear fractions of kidney tissue were measured by Western blot analysis using rabbit antibodies against mouse Nrf2, or p47^phox (Santa Cruz). […]

[2] = day 28, vs control AcP-IgAN mice
[3] = day 14 and day 21, vs control FSGS mice

**Q.** How did the “renal expression levels of mRNA and protein of MCP-1” value (MCP-1; day 3) turn out when COC1=C(OC)[C@H](O)[C@H](C/C=C(\C)CC/C=C(\C)CCC=C(C)C)[C@@H](C)C1=O [Compound 1, Antroquinonol] was run?
**A.** no such effect

**Q.** And the “renal expression levels of mRNA of MCP-1” value (MCP-1; [2])?
**A.** significantly reduced

**Q.** And the “renal expression levels of protein of MCP-1” value (MCP-1; [2])?
**A.** significantly reduced

**Q.** And the “ROS levels in sera” value (ROS; day 3, vs control AcP-IgAN mice)?
**A.** substantial reduction

**Q.** What about the “ROS levels in renal tissues” value (ROS; [2]) of the same molecule?
**A.** substantial reduction

**Q.** And the “ROS levels in sera” value (ROS; [2])?
**A.** substantial reduction

**Q.** What about the “ROS levels in urine” value (ROS; [2]) of the same molecule?
**A.** substantial reduction

**Q.** What about the “TGF-β1 protein levels in kidney (ELISA)” value (TGF-β1; [3]) of the same molecule?
**A.** greatly abrogated

**Q.** What about the “TGF-β1 protein levels in serum (ELISA)” value (TGF-β1; [3]) of the same molecule?
**A.** greatly abrogated

**Q.** What about the “TGF-β1 protein expression in the kidney (IHC)” value (TGF-β1; vs control FSGS mice) of the same molecule?
**A.** significantly lower

**Q.** What about the “protein levels of NAD(P)H oxidase subunit p47^phox in kidney (increase in FSGS)” value [1] of the same molecule?
**A.** abolished
